In patent US20060069132A1, “Azolecarboxamide herbicides” (priority 2004, published 2006):
Where two headings read alike, the source gives them in different places.

Experiments:
lambsquarters = test: Test B pre-/postemergence herbicide test; type: in vivo, Chenopodium album; conditions: Chenopodium album, 336 h; for pest or weed control at 125 g/ha: 125 g ai/ha
Procedure, shortened: (§1)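 Herbicidal effect was judged by eye on a 0–100 scale after plants stood 13 to 15 days in the greenhouse following pre- or postemergence treatment with surfactant-containing formulations.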

giant foxtail = test: Test B pre-/postemergence herbicide test; type: in vivo, Setaria faberi; conditions: Setaria faberi, 336 h; for pest or weed control at 500 g/ha: 500 g ai/ha; for pest or weed control at 125 g/ha: 125 g ai/ha
Procedure, shortened: as §1

Surinam grass = test: Test B pre-/postemergence herbicide test; type: in vivo, Urochloa decumbens; conditions: Urochloa decumbens; for pest or weed control at 125 g/ha: 125 g ai/ha
Procedure, shortened: as §1

[1] = test system: small flower umbrella sedge; test: Test B flooded paddy test; type: in vivo, Cyperus difformis; conditions: Cyperus difformis, 336 h, 1000 g ai/ha, visual rating, scale 0 to 100 (0 no effect, 100 complete control), 13 to 15 days, read-out: Sedge, Umbrella plant response rating
Procedure, shortened: (§2)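 Plants grow to 1- to 4-leaf stage (2–18 cm) for postemergence spraying, or to 2-leaf stage for the paddy test. Formulated compound is applied. Greenhouse holding lasts 13–15 days. Response is scored visually relative to controls, 0 no effect to 100 complete control; a dash means no result.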

wild oat = test: Test B postemergence herbicide test; type: in vivo, Avena fatua; conditions: scale 0 (no effect) to 100 (complete control)
Procedure, shortened: (§3)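 Formulated test chemicals went onto postemergence plants measuring 2 to 18 cm, at one to four leaves. For the paddy assay, species had reached two leaves. Scoring took place 13–15 days later by eye, relative to untreated plants, using 0 for no effect up to 100 for full control.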

velvetleaf = test: Test B pre-/postemergence herbicide test; type: in vivo, Abutilon theophrasti; conditions: Abutilon theophrasti, 336 h; for pest or weed control at 125 g/ha: 125 g ai/ha
Procedure, shortened: as §1

cocklebur = test: Test B pre-/postemergence herbicide test; type: in vivo, Xanthium strumarium; conditions: Xanthium strumarium; for pest or weed control at 500 g/ha: 500 g ai/ha; for pest or weed control at 125 g/ha: 125 g ai/ha
Procedure, shortened: (§4)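 Species tested were Echinochloa crus-galli, Ipomoea coccinea, Xanthium strumarium and Oryza sativa, treated both before emergence and at the 1- to 4-leaf stage; rice and barnyardgrass were also tested under flooding at 2 leaves. Greenhouse incubation lasted 13–15 days before visual 0–100 scoring.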

large crabgrass = test: Test B pre-/postemergence herbicide test; type: in vivo, Digitaria sanguinalis; conditions: Digitaria sanguinalis; for pest or weed control at 500 g/ha: 500 g ai/ha; for pest or weed control at 125 g/ha: 125 g ai/ha
Procedure, shortened: as §1

barnyardgrass = test: Test B pre-/postemergence herbicide test; type: in vivo, Echinochloa crus-galli; conditions: Echinochloa crus-galli; for pest or weed control at 500 g/ha: 500 g ai/ha; for pest or weed control at 125 g/ha: 125 g ai/ha
Procedure, shortened: as §4

morningglory = test: Test B pre-/postemergence herbicide test; type: in vivo, Ipomoea coccinea; conditions: Ipomoea, 336 h; for pest or weed control at 125 g/ha: 125 g ai/ha
Procedure, shortened: as §4

wheat = test: Test B postemergence herbicide test; type: in vivo, Triticum aestivum; conditions: scale 0 (no effect) to 100 (complete control)
Procedure, shortened: as §3

pigweed = test: Test B pre-/postemergence herbicide test; type: in vivo, Amaranthus retroflexus; conditions: Amaranthus retroflexus, 336 h; for pest or weed control at 125 g/ha: 125 g ai/ha
Procedure, shortened: as §1

corn = test: Test B pre-/postemergence herbicide test; type: in vivo, Zea mays; conditions: Zea mays
Procedure, shortened: as §1

blackgrass = test: Test B postemergence herbicide test; type: in vivo, Alopecurus myosuroides; conditions: scale 0 (no effect) to 100 (complete control)
Procedure, shortened: as §2

[2] = Postemergence, 500 g ai/ha, visual rating after 13 to 15 days

CCOC(=O)c1cccc(NC(=O)c2cc(C(C)(C)C)nn2CC)c1 [Compound 80, ethyl 3-[[[3-(1,1-dimethylethyl)-1-ethyl-1H-pyrazol-5-yl]carbonyl]-amino]benzoate]
pest or weed control at 500 g/ha (lambsquarters; post-emergence, Postemergence, 500 g ai/ha, visual rating after 13 to 15 days, scale 0 (no effect) to 100 (complete control), read-out: Plant response rating, Lambsquarters): 80%
pest or weed control at 125 g/ha (lambsquarters; post-emergence, postemergence, visual rating, scale 0 (no effect) to 100 (complete control), read-out: Lambsquarters plant response rating): 70%
pest or weed control at 125 g/ha (lambsquarters; pre-emergence, preemergence, 0 to 100 scale, 0 is no effect, 100 is complete control, read-out: Plant response rating, Lambsquarters): 0%
pest or weed control at 500 g/ha (giant foxtail; post-emergence, Postemergence, visual rating after 13 to 15 days, scale 0 (no effect) to 100 (complete control), read-out: Plant response rating, Foxtail, Giant): 90%
pest or weed control at 125 g/ha (giant foxtail; post-emergence, postemergence, visual rating, scale 0 (no effect) to 100 (complete control), read-out: Foxtail, Giant plant response rating): 50%
pest or weed control at 500 g/ha (giant foxtail; pre-emergence, Preemergence, scale 0 to 100, read-out: Foxtail, Giant plant response rating): 70%
pest or weed control at 125 g/ha (giant foxtail; pre-emergence, preemergence, 0 to 100 scale, 0 is no effect, 100 is complete control, read-out: Plant response rating, Foxtail, Giant): 20%
pest or weed control at 500 g/ha (Surinam grass; post-emergence, Postemergence, 500 g ai/ha, visual rating after 13 to 15 days, scale 0 (no effect) to 100 (complete control), read-out: Plant response rating, Surinam Grass): 90%
pest or weed control at 125 g/ha (Surinam grass; post-emergence, postemergence, visual rating, scale 0 (no effect) to 100 (complete control), read-out: Surinam Grass plant response rating): 90%
pest or weed control at 125 g/ha (Surinam grass; pre-emergence, preemergence, 0 to 100 scale, 0 is no effect, 100 is complete control, read-out: Plant response rating, Surinam Grass): 0%
pest or weed control at 1000 g/ha [1]: 80%
pest or weed control at 125 g/ha (wild oat; Avena fatua, post-emergence, 336 h, postemergence, 125 g ai/ha, visual rating, read-out: Oat, Wild plant response rating): 30%
Plant response rating, Oat, Wild (wild oat; [2]): 50
pest or weed control at 500 g/ha (velvetleaf; post-emergence, Postemergence, 500 g ai/ha, visual rating after 13 to 15 days, scale 0 (no effect) to 100 (complete control), read-out: Plant response rating, Velvetleaf): 100%
pest or weed control at 125 g/ha (velvetleaf; post-emergence, postemergence, visual rating, scale 0 (no effect) to 100 (complete control), read-out: Velvetleaf plant response rating): 90%
pest or weed control at 125 g/ha (velvetleaf; pre-emergence, preemergence, 0 to 100 scale, 0 is no effect, 100 is complete control, read-out: Plant response rating, Velvetleaf): 20%
pest or weed control at 500 g/ha (cocklebur; post-emergence, Postemergence, visual rating after 13 to 15 days, scale 0 (no effect) to 100 (complete control), read-out: Plant response rating, Cocklebur): 100%
pest or weed control at 125 g/ha (cocklebur; post-emergence, postemergence, visual rating, scale 0 (no effect) to 100 (complete control), read-out: Cocklebur plant response rating): 70%
pest or weed control at 500 g/ha (cocklebur; pre-emergence, Preemergence, scale 0 to 100, read-out: Cocklebur plant response rating): 0%
pest or weed control at 125 g/ha (cocklebur; pre-emergence, preemergence, 0 to 100 scale, 0 is no effect, 100 is complete control, read-out: Plant response rating, Cocklebur): 0%
pest or weed control at 500 g/ha (large crabgrass; post-emergence, Postemergence, visual rating after 13 to 15 days, scale 0 (no effect) to 100 (complete control), read-out: Plant response rating, Crabgrass, Large): 100%
pest or weed control at 125 g/ha (large crabgrass; post-emergence, postemergence, visual rating, scale 0 (no effect) to 100 (complete control), read-out: Crabgrass, Large plant response rating): 100%
pest or weed control at 500 g/ha (large crabgrass; pre-emergence, Preemergence, scale 0 to 100, read-out: Crabgrass, Large plant response rating): 0%
pest or weed control at 125 g/ha (large crabgrass; pre-emergence, preemergence, 0 to 100 scale, 0 is no effect, 100 is complete control, read-out: Plant response rating, Crabgrass, Large): 0%
pest or weed control at 500 g/ha (barnyardgrass; post-emergence, Postemergence, visual rating after 13 to 15 days, scale 0 (no effect) to 100 (complete control), read-out: Plant response rating, Barnyardgrass): 90%
pest or weed control at 125 g/ha (barnyardgrass; post-emergence, postemergence, visual rating, scale 0 (no effect) to 100 (complete control), read-out: Barnyardgrass plant response rating): 80%
pest or weed control at 500 g/ha (barnyardgrass; pre-emergence, Preemergence, scale 0 to 100, read-out: Barnyardgrass plant response rating): 20%
pest or weed control at 125 g/ha (barnyardgrass; pre-emergence, preemergence, 0 to 100 scale, 0 is no effect, 100 is complete control, read-out: Plant response rating, Barnyardgrass): 0%
pest or weed control at 500 g/ha (morningglory; post-emergence, Postemergence, 500 g ai/ha, visual rating after 13 to 15 days, scale 0 (no effect) to 100 (complete control), read-out: Plant response rating, Morningglory): 100%
pest or weed control at 125 g/ha (morningglory; post-emergence, postemergence, visual rating, scale 0 (no effect) to 100 (complete control), read-out: Morningglory plant response rating): 100%
pest or weed control at 125 g/ha (morningglory; pre-emergence, preemergence, 0 to 100 scale, 0 is no effect, 100 is complete control, read-out: Plant response rating, Morningglory): 0%
Plant response rating, Wheat (wheat; [2]): 30
plant injury at 125 g/ha (wheat; Triticum aestivum, post-emergence, 336 h, postemergence, 125 g ai/ha, visual rating, read-out: Wheat plant response rating): 20%
pest or weed control at 500 g/ha (pigweed; post-emergence, Postemergence, 500 g ai/ha, visual rating after 13 to 15 days, scale 0 (no effect) to 100 (complete control), read-out: Plant response rating, Pigweed): 100%
pest or weed control at 125 g/ha (pigweed; post-emergence, postemergence, visual rating, scale 0 (no effect) to 100 (complete control), read-out: Pigweed plant response rating): 100%
pest or weed control at 125 g/ha (pigweed; pre-emergence, preemergence, 0 to 100 scale, 0 is no effect, 100 is complete control, read-out: Plant response rating, Pigweed): 0%
Corn plant response rating (crop injury, 0 = no effect, 100 = complete kill) at 500 g/ha (corn; post-emergence, Postemergence, 500 g ai/ha, visual rating after 13 to 15 days, scale 0 (no effect) to 100 (complete control)): 50%
plant injury at 125 g/ha (corn; post-emergence, postemergence, 125 g ai/ha, visual rating, scale 0 (no effect) to 100 (complete control), read-out: Corn plant response rating): 20%
plant injury at 500 g/ha (corn; pre-emergence, Preemergence, 500 g ai/ha, scale 0 to 100, read-out: Corn plant response rating): 10%
Corn plant response rating (crop injury, 0 = no effect, 100 = complete kill) at 125 g/ha (corn; pre-emergence, preemergence, 125 g ai/ha, 0 to 100 scale, 0 is no effect, 100 is complete control): 0%
pest or weed control at 125 g/ha (blackgrass; Alopecurus myosuroides, post-emergence, 336 h, postemergence, 125 g ai/ha, visual rating, read-out: Blackgrass plant response rating): 20%
Plant response rating, Blackgrass (blackgrass; [2]): 40
